What was measured:
Format in all cases: cell-based, human
[1] = tested on: TCR NYN-3 (Jurkat E6-1 TPR cells)
[2] = tested on: TCR NYN-2 (Jurkat E6-1 TPR cells)
[3] = tested on: TCR NYN-1 (Jurkat E6-1 TPR cells)
[4] = tested on: NYN peptide-specific TCRs (NYN-1 to NYN-4 Jurkat E6-1 TPR cell lines)

| Sequence | effect of the mutation on response / affinity of NYN-3 (in words) [1] | effect of the mutation on response / affinity of NYN-2 (in words) [2] | effect of the mutation on response / affinity of NYN-1 (in words) [3] | effect of the mutation on the T-cell response / recognition (in words) [4] |
| --- | --- | --- | --- | --- |
| NYDYMYRLF [N450D + L452M] | slightly disrupted the response | slightly disrupted the response | not |  |
| NYDYWYRLF [N450D + L452W] | increased the affinity | increased the affinity |  | did not affect the T-cell response |

— PMC11641755, “Features of Highly Homologous T-Cell Receptor Repertoire in the Immune Response to Mutations in Immunogenic Epitopes” (International Journal of Molecular Sciences, 2024)
